Measurements reported in PubChem BioAssay (NCI).
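Briefly, cells in 96-well plates were exposed to five compound concentrations for 48 h, and endpoints were estimated by linear interpolation. TGI: concentration producing complete growth inhibition.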

Assays:
Test in all cases: NCI tumour cell line growth inhibition, 48 h
[1] = test system: BT-549 breast
[2] = test system: U251 CNS
[3] = test system: SK-MEL-2 melanoma
[4] = test system: LOX IMVI melanoma
[5] = test system: TK-10 renal
[6] = test system: A549 NSCLC
[7] = test system: OVCAR-8 ovarian
[8] = test system: IGROV1 ovarian
[9] = test system: OVCAR-5 ovarian
[10] = test system: SNB-75 CNS
[11] = test system: MDA-MB-231 breast
[12] = test system: HT29 colon
[13] = test system: OVCAR-3 ovarian
[14] = test system: SK-MEL-5 melanoma
[15] = test system: SF-295 CNS
[16] = test system: SK-MEL-28 melanoma
[17] = test system: SK-OV-3 ovarian
[18] = test system: HL-60(TB) leukemia
[19] = test system: UO-31 renal
[20] = test system: SF-268 CNS
[21] = test system: HOP-92 NSCLC
[22] = test system: MDA-MB-435
[23] = test system: COLO 205 colon
[24] = test system: T-47D breast
[25] = test system: MALME-3M melanoma
[26] = test system: M14 melanoma
[27] = test system: UACC-257 melanoma
[28] = test system: NCI-H23 lung
[29] = test system: SNB-19 CNS
[30] = test system: DU-145 prostate
[31] = test system: SR leukemia
[32] = test system: SN12C renal
[33] = test system: KM12 colon
[34] = test system: NCI-H460 lung
[35] = test system: HCT-15 colon
[36] = test system: OVCAR-4 ovarian
[37] = test system: NCI/ADR-RES ovarian
[38] = test system: MDA-N
[39] = test system: HOP-62 NSCLC
[40] = test system: NCI-H522 lung
[41] = test system: K-562 leukemia
[42] = test system: CAKI-1 renal
[43] = test system: MOLT-4 leukemia
[44] = test system: SW-620 colon
[45] = test system: HCC-2998 colon
[46] = test system: SF-539 CNS
[47] = test system: RPMI-8226 leukemia
[48] = test system: 786-0 renal
[49] = test system: CCRF-CEM leukemia
[50] = test system: EKVX NSCLC
[51] = test system: HS 578T breast
[52] = test system: HCT-116 colon
[53] = test system: NCI-H226 lung
[54] = test system: RXF 393 renal
[55] = test system: PC-3 prostate
[56] = test system: UACC-62 melanoma
[57] = test system: ACHN renal
[58] = test system: A498 renal
[59] = test system: MCF7 breast

With `CCN(CC)S(=O)(=O)c1ccc2nc(NC(=O)OC)[nH]c2c1` the TGI [1] was > 100 µM, the TGI [2] was > 100 µM and the TGI [3] was > 100 µM. The TGI [4] was > 100 µM, the TGI [5] was > 100 µM and the TGI [6] was > 100 µM. For the same compound, the TGI [7] was > 100 µM, the TGI [8] was > 100 µM and the TGI [9] was > 100 µM. The TGI [10] was > 100 µM, the TGI [11] was > 100 µM and the TGI [12] was > 100 µM. For the same compound, the TGI [13] was > 100 µM, the TGI [14] was > 100 µM and the TGI [15] was > 100 µM. The TGI [16] was > 100 µM, the TGI [17] was > 100 µM and the TGI [18] was 63.4 µM. For the same compound, the TGI [19] was > 100 µM, the TGI [20] was > 100 µM and the TGI [21] was > 100 µM. The TGI [22] was 36.8 µM, the TGI [23] was > 100 µM and the TGI [24] was > 100 µM. The TGI [25] was > 100 µM, the TGI [26] was > 100 µM and the TGI [27] was > 100 µM. The TGI [28] was > 100 µM, the TGI [29] was > 100 µM and the TGI [30] was > 100 µM. For the same compound, the TGI [31] was 83.9 µM, the TGI [32] was > 100 µM and the TGI [33] was > 100 µM. For the same compound, the TGI [34] was > 100 µM, the TGI [35] was > 100 µM and the TGI [36] was > 100 µM. For the same compound, the TGI [37] was > 100 µM, the TGI [38] was 65.9 µM and the TGI [39] was > 100 µM. For the same compound, the TGI [40] was > 100 µM, the TGI [41] was > 100 µM and the TGI [42] was > 100 µM. The TGI [43] was 61.7 µM, the TGI [44] was > 100 µM and the TGI [45] was > 100 µM. For the same compound, the TGI [46] was 74.3 µM, the TGI [47] was 47.1 µM and the TGI [48] was > 100 µM. For the same compound, the TGI [49] was > 100 µM, the TGI [50] was > 100 µM and the TGI [51] was > 100 µM. The TGI [52] was > 100 µM, the TGI [53] was > 100 µM and the TGI [54] was > 100 µM.

`C=C1CC(Cn2cc(C)c(=O)[nH]c2=O)(c2ccc(Cl)cc2)OC1=O` (stereo not drawn) showed a TGI [1] of 2.86 µM, a TGI [2] of 30 µM and a TGI [3] of 5.48 µM. For the same compound, the TGI [4] was 3.2 µM, the TGI [5] was 3.61 µM and the TGI [6] was 32.2 µM. For the same compound, the TGI [7] was 15.4 µM, the TGI [8] was 3.41 µM and the TGI [9] was 29.4 µM. The TGI [10] was 15.4 µM, the TGI [11] was 9.82 µM and the TGI [12] was 3.64 µM. For the same compound, the TGI [14] was 6.43 µM, the TGI [15] was > 34 µM and the TGI [16] was 4.44 µM. It also gave a TGI [17] of 28.1 µM, a TGI [18] of 3.93 µM and a TGI [19] of 25.9 µM. For the same compound, the TGI [20] was 42.1 µM, the TGI [21] was 1.58 µM and the TGI [22] was 15.1 µM. For the same compound, the TGI [23] was 2.96 µM, the TGI [24] was 5.19 µM and the TGI [25] was 4.89 µM. The TGI [26] was 2.54 µM, the TGI [27] was 3.75 µM and the TGI [28] was 10.4 µM. For the same compound, the TGI [29] was > 55.5 µM, the TGI [30] was 18.3 µM and the TGI [31] was 8.97 µM. The TGI [32] was 21.2 µM, the TGI [33] was > 43 µM and the TGI [34] was 36.1 µM. It also gave a TGI [55] of 12.5 µM, a TGI [35] of 2.37 µM and a TGI [37] of 17.9 µM. The TGI [38] was 11.6 µM, the TGI [39] was 33 µM and the TGI [40] was 1.35 µM. The TGI [41] was 21.1 µM, the TGI [42] was 3.93 µM and the TGI [43] was 3.87 µM. The TGI [56] was 7.48 µM, the TGI [44] was 3.38 µM and the TGI [45] was 8.43 µM. For the same compound, the TGI [46] was 26 µM, the TGI [47] was 1.95 µM and the TGI [48] was 2.99 µM. It also gave a TGI [49] of 4.01 µM, a TGI [57] of 8 µM and a TGI [50] of 18.7 µM. It also gave a TGI [58] of 22.8 µM, a TGI [51] of 25.5 µM and a TGI [52] of 3.29 µM. The TGI [53] was 30.6 µM.

`CC(C1CCCC1=O)C1CCCC1=O` (stereo not drawn) was tested, and the TGI [1] was > 100 µM, the TGI [2] was > 100 µM and the TGI [3] was > 100 µM. The TGI [4] was > 100 µM, the TGI [5] was > 100 µM and the TGI [6] was > 100 µM. The TGI [7] was > 100 µM, the TGI [8] was > 100 µM and the TGI [9] was > 100 µM. For the same compound, the TGI [10] was > 100 µM, the TGI [11] was > 100 µM and the TGI [12] was > 100 µM. For the same compound, the TGI [14] was > 100 µM, the TGI [15] was > 100 µM and the TGI [16] was > 100 µM. For the same compound, the TGI [17] was > 100 µM, the TGI [18] was > 100 µM and the TGI [19] was > 100 µM. For the same compound, the TGI [20] was > 100 µM, the TGI [23] was > 100 µM and the TGI [24] was > 100 µM. The TGI [25] was > 100 µM, the TGI [26] was > 100 µM and the TGI [27] was > 100 µM. For the same compound, the TGI [28] was > 100 µM, the TGI [29] was > 100 µM and the TGI [30] was > 100 µM. For the same compound, the TGI [31] was > 100 µM, the TGI [32] was > 100 µM and the TGI [33] was > 100 µM. For the same compound, the TGI [34] was > 100 µM, the TGI [59] was > 100 µM and the TGI [55] was > 100 µM. For the same compound, the TGI [35] was > 100 µM, the TGI [36] was > 100 µM and the TGI [37] was > 100 µM. For the same compound, the TGI [38] was > 100 µM, the TGI [39] was > 100 µM and the TGI [40] was > 100 µM. For the same compound, the TGI [41] was > 100 µM, the TGI [42] was > 100 µM and the TGI [43] was > 100 µM. For the same compound, the TGI [56] was > 100 µM, the TGI [44] was > 100 µM and the TGI [45] was > 100 µM. The TGI [46] was > 100 µM, the TGI [48] was > 100 µM and the TGI [49] was > 100 µM. For the same compound, the TGI [57] was > 100 µM, the TGI [50] was > 100 µM and the TGI [51] was > 100 µM. The TGI [52] was > 100 µM, the TGI [53] was > 100 µM and the TGI [54] was > 100 µM.
